Results taken from patent publication US20090029366A1 (priority 2007, published 2009).

Target: T1, human HCN2 channel (Homo sapiens, UniProt Q9UL51)
T1 construct: expressed in transfected cells; host or cells: HEK-293H (clones #4, #8, #11, #12)
T1 sequence (Q9UL51 1-889): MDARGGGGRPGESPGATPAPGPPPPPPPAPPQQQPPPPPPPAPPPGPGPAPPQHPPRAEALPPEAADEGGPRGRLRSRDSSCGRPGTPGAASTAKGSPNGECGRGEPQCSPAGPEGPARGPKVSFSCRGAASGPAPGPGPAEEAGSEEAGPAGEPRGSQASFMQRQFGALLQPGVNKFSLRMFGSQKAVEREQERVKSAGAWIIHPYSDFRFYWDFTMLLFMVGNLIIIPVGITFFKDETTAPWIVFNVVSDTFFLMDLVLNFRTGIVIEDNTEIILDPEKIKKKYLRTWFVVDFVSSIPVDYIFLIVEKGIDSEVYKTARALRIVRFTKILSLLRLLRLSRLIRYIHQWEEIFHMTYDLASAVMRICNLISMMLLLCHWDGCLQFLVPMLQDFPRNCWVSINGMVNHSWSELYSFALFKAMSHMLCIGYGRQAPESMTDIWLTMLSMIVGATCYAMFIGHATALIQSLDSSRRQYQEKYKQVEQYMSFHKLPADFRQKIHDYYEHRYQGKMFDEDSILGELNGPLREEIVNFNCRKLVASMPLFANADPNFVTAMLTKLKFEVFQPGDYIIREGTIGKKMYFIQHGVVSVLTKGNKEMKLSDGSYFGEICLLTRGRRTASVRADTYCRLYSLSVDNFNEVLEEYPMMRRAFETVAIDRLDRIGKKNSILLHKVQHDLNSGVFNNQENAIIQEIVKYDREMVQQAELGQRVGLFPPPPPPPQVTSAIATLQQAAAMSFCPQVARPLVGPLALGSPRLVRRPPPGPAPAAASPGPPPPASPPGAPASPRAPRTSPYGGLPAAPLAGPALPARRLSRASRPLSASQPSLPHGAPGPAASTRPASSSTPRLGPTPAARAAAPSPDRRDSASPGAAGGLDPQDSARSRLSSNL
Assay: MPSD FLIPR 384 assay on HEK-293H clones expressing HCN2
Type: cell-based
Conditions: 30 μM ZD7288
Procedure: HEK-293H cells were transfected with constructs encoding a human HCN2 channel essentially as described in Example 1. Cell lines were generated from a single clone according to standard protocols. The cells were incubated in HBSS/MPSD (control cells) or HBSS/MPSD and 30 μM ZD7288 (test cells) using a 384 well plate format, followed by the addition of the sodium/potassium diluent solution essentially as described in Examples 3 and 5. FIGS. 14A-14D show the effect of ZD7288 on each of the four clones expressing HCN2 channels. FIGS. 14A (clone #4), 14B (clone #8), 14C (clone #11), and 14D (clone #12) each depict the change in fluorescence over time for cells incubated in saline only (overlaid lower traces ) and for cells incubated in saline containing the HCN channel inhibitor ZD7288 (overlaid upper traces ). […] The Z-factor was between 0.56 and 0.64, and the covariance (CV) was between from 6.6 to 9.9.

CCN(c1ccccc1)c1cc(=NC)n(C)c(C)n1.Cl [ZD7288]
blockade of hyperpolarization for each of the HCN2 clones (384 well, clones #4, #8, #11, #12): effectively blocked hyperpolarization
Δfluorescence (saline + ZD7288), Mean (Clone #4, saline only −24421): −2392 RFU
Δfluorescence (saline + ZD7288), Mean (Clone #8, saline only −23600): −3006 RFU
Δfluorescence (saline + ZD7288), Mean (Clone #11, saline only −25477): −2413 RFU
Δfluorescence (saline + ZD7288), Mean (Clone #12, saline only −26367): −4834 RFU
